Consider 1 compound from patent US20060217305A1, “Induction of tumor cell senescence by retinoid receptor agonists and antagonists” (Ordway Research Institute, Inc., priority 2005, published 2006).

SMILES strings stand for the structures.

Data set [1] relates to retinoid-inducible genes EPLIN, UBD, IGFBP3, TGFB1 and TRIM31 in MCF-7 cells (subline MCF-7 3′SS6). In words: real-time RT-PCR (QPCR) of retinoid-inducible gene expression, 2 days treatment. Particulars: for Fold induction EPLIN / Fold induction IGFBP3 / Fold induction TGFBI / Fold induction TRIM31 / Fold induction UBD: 2 days, MCF-7. Type of data set: cell-based, human. From the text: The following compounds were obtained from Ligand Pharmaceuticals (San Diego, Calif.). LGD1550 is a pan-RAR agonist. LGD1268 is a pan-RXR agonist. LG100815 is a pan-RAR antagonist. LG101208 is a pan-RXR antagonist. The LG100815 compound is a specific RAR antagonist that binds to RAR, but fails to activate its Retinoic Acid Responsive Element (RARE)-dependent transcription transactivation function (see Lee et al, Mol. Cell Biol. 19: 1973-1980 (1999)). Also used was all-trans retinoic acid (RA), the most commonly used RAR agonist. To determine how these compounds affect the expression of retinoid-inducible growth inhibitory genes EPLIN, UBD, IGFBP3 and TGFB1, as well as TRIM31 gene that contains a putative RARE element in its promoter, MCF-7 cells (subline MCF-7 3′SS6) were treated with individual compounds or their combinations for 2 days, and RNA was extracted by standard procedures. In the initial assays, gene expression was analyzed by semi-quantitative reverse transcription-PCR (RT-PCR), as described in Dokmanovic et al., Cancer Biology & Therapy 1:24-27 (2002). In subsequent assays, the initial results were confirmed, expanded and quantitated by real-time RT-PCR (QPCR), using Applied BioSystems 7900HT real-time PCR instrument. β-actin was used as a normalization standard.
cDNA was prepared by reverse transcription with random primer using 4 μg total RNA. 5 μl SYBR Green PCR Master Mix (Applied Biosystems) was mixed with […] cDNA and 0.8 pmol of gene-specific primers and brought up to 10 μl with ultra pure H2O in 384-well optical plates. For amplification, reaction mixtures were heated for 2 min at 50° C. and 10 min at 95° C., followed by 40 cycles of two-step PCR consisting of 15 sec at 95° C. and 1 min at 60° C., to construct dissociation curves and verify that single PCR products were obtained. PCR products were also analyzed by gel electrophoresis to confirm that a single product of the expected size was amplified. […] The comparative CT method for relative quantitation of gene expression described by Applied Biosystems was used to determine expression levels for target genes. Experiments were carried out in triplicate for each data point. Sequence Detection Systems software version 2.1 (Applied Biosystems) and Microsoft Excel were used for data analysis.

Data set [2] has as its system DR5 RARE-containing promoter in MCF-7 cells. In words: DR5-luciferase transient transfection assay (RARE-dependent transcription). Type of data set: cell-based, human. Particulars: 100 nM, 24 hrs. The method, then:
The assays were carried out in triplicate. RA is all-trans retinoic acid. LGD1550 is a pan-RAR agonist. LG100815 is a pan-RAR antagonist.
To confirm the ability of LG100815 to antagonize RARE-dependent induction of transcription analysis of firefly luciferase expression from a RARE-containing artificial promoter DR5 (Stratagene, catalog number 240119) was performed. Cells were plated to the density of 3×10^5 in P60 24 hrs before transient transfection. DR5 reporter plasmid (4 μg) was mixed with the SV40-driven-Renilla luciferase control plasmid (0.04 μg) and transfected using Lipofectamine Plus (Life Technologies/Invitrogen, Carlsbad, Calif.) as described by the manufacturer. 3 hrs after transfection, cells were rinsed three times with PBS, trypsinized and replated in a 12-well plate to the density of 5×10^4 cells per well. Retinoid agonists and antagonists were added 48 hrs later, and the luciferase assay was performed after another 24 hrs.

Consider `CC(/C=C/C=C(\C)c1cc(C(C)(C)C)cc(C(C)(C)C)c1)=C\C(=O)O` [LGD1550], for which, in data set [1] (100 nM), the “ratio of the fold-induction of TGFB1 relative to TRIM31” value was determined as 0.12, the “Fold induction EPLIN” value amounted to 4.2 ± 0.8 fold, the “Fold induction IGFBP3” value is on record as 4.2 ± 2.0 fold and the “Fold induction TGFBI” value is 5.1 ± 0.6 fold. In data set [1] (100 nM), the “Fold induction TRIM31” value amounted to 42.7 ± 1.3 fold and the “Fold induction UBD” value was found to be 9.5 ± 0.2 fold. In data set [1] (1 μM), the “ratio of the fold-induction of TGFB1 relative to TRIM31” value stood at 0.12, the “Fold induction EPLIN” value was found to be 3.2 ± 0.3 fold, the “Fold induction IGFBP3” value was 3.7 ± 0.7 fold and the “Fold induction TGFBI” value is given as 3.5 ± 0.4 fold. Moreover, in data set [1] (1 μM), the “Fold induction TRIM31” value came out at 30.3 ± 0.7 fold and the “Fold induction UBD” value was determined as 7.7 ± 1.1 fold. Besides, in data set [1] (10 μM), the “ratio of the fold-induction of TGFB1 relative to TRIM31” value was 0.12, the “Fold induction EPLIN” value was 4.9 ± 2.5 fold, the “Fold induction IGFBP3” value stood at 2.8 ± 1.6 fold and the “Fold induction TGFBI” value is reported as 5.6 ± 0.1 fold. In data set [1] (10 μM), the “Fold induction TRIM31” value is recorded as 45.0 ± 1.4 fold and the “Fold induction UBD” value came out at 7.3 ± 1.1 fold. Besides, the “effect on expression of the five genes (IGFBP3, EPLIN, UBD, TGFB1, TRIM31)” value in data set [1] (summary of Table 2, MCF-7) was “induced all five genes to approximately the same extent as RA”. Moreover, the “induction of luciferase expression from DR5 RARE-containing promoter” value in data set [2] is “approximately 50 fold”.
